Measurements taken from PMC6440935, “Characterization and phase I study of CLR457, an orally bioavailable pan-class I PI3-kinase inhibitor” (Investigational New Drugs, 2018).
Where two headings read alike, the source gives them in different places.

From the text: The primary objective was to define the maximum tolerated dose (MTD). Secondary objectives included assessments for safety, tolerability, pharmacokinetic (PK) profile, and preliminary antitumor activity.
Patients had histologically documented locally advanced or metastatic solid tumors harboring an activating PIK3CA mutation or amplification, PTEN loss of function, c-MET activation, [16, 17] […] Other key inclusion criteria included age ≥ 18 years, Eastern Cooperative Oncology Group performance status (ECOG-PS) ≤2, adequate organ function, measurable or non-measurable disease as determined by Response Evaluation Criteria in Solid Tumors (RECIST) version 1.1.
The starting dose for CLR457 was 5 mg QD, based on preclinical toxicology studies in accordance with ICH guidelines, and was administered at the same time each day ±2 h in a fasted state. Various doses were planned up to 300 mg QD until MTD determination.
Safety was evaluated by incidence, nature, severity, and relatedness of adverse events (AEs), and graded according to National Cancer Institute - Common Terminology Criteria for Adverse Events (NCI CTCAE) v4.0.3. DLTs were defined as any hematologic or non-hematologic ≥ Grade 3 AE assessed as possibly related to CLR457 that occurred within the first cycle (28 days) of treatment. In addition, uncontrolled (> 14 days) Grade 2 rash or hyperglycemia were also considered DLTs. All AEs regardless of attribution were collected until 30 days following the last administration of treatment or study discontinuation/termination.
Descriptive methods were used to tabulate toxicity and response endpoints in the clinical trial. All patients treated with CLR457 were included for safety. […] Dose escalation was guided by an adaptive Bayesian logistic regression model (BLRM) incorporating the escalation with overdose control (EWOC) principle. […] The study data (including DLTs during cycle 1 and other safety and PK data) were reviewed by the sponsor and trial investigators at each dose level. […] The Full Analysis Set (FAS) included all patients who received at least one dose of CLR457. Safety set included all patients who received at least one dose of CLR457 and had at least one valid post-baseline assessment. The Dose-determining set (DDS) included all patients from the safety set who either met the following minimum exposure criterion and had sufficient safety evaluations, or experienced a DLT during Cycle 1 (the first 28 days of dosing). The Pharmacokinetic analysis set included all patients who had at least one blood sample providing evaluable PK data.

For `C[C@H]1OC(=O)N(c2cc(-c3cnc(N)nc3C(F)(F)F)nc(N3CCOCC3)n2)[C@H]1CO` [CLR457], the “DLT hyperglycemia in the first cycle” value (5 mg, DDS N = 2) was 0 n (%), the “DLT maculo-papular rash in the first cycle” value (5 mg, DDS N = 2) was 0 n (%) and the “Total DLTs in the first cycle” value (5 mg, DDS N = 2) was 0 n (%). For the same compound, the “Treatment discontinuation, primary reason adverse event” value (from here on “Treatment discontinuation”) (5 mg, FAS N = 2) was 0 n (%), the “DLT hyperglycemia in the first cycle” value (10 mg, DDS N = 3) was 0 n (%) and the “DLT maculo-papular rash in the first cycle” value (10 mg, DDS N = 3) was 0 n (%). For the same compound, the “Total DLTs in the first cycle” value (10 mg, DDS N = 3) was 0 n (%), the “Treatment discontinuation” value (10 mg, FAS N = 3) was 0 n (%) and the “DLT hyperglycemia in the first cycle” value (20 mg, DDS N = 4) was 0 n (%). The “DLT maculo-papular rash in the first cycle” value (20 mg, DDS N = 4) was 0 n (%), the “Total DLTs in the first cycle” value (20 mg, DDS N = 4) was 0 n (%) and the “Treatment discontinuation” value (20 mg, FAS N = 4) was 0 n (%). For the same compound, the DLT maculo-papular rash (40 mg) was “one”, the “DLT hyperglycemia in the first cycle” value (40 mg, DDS N = 5) was 0 n (%) and the “DLT maculo-papular rash in the first cycle” value (40 mg, DDS N = 5) was 1 (20.0) n (%). The “Total DLTs in the first cycle” value (40 mg, DDS N = 5) was 1 (20.0) n (%), the “Treatment discontinuation” value (40 mg, FAS N = 5) was 1 (20.0) n (%) and the “DLT hyperglycemia in the first cycle” value (70 mg, DDS N = 6) was 0 n (%). For the same compound, the “DLT maculo-papular rash in the first cycle” value (70 mg, DDS N = 6) was 0 n (%), the “Total DLTs in the first cycle” value (70 mg, DDS N = 6) was 0 n (%) and the “Treatment discontinuation” value (70 mg, FAS N = 6) was 0 n (%). For the same compound, the “DLT Grade 3 hyperglycemia” value (100 mg) was 1 patient, the DLT maculo-papular rash (100 mg) was “two” and the “Patients with ≥ grade 3 toxicity” value (100 mg cohort (n = 11)) was 100%. For the same compound, the “Rash ≥ grade 3” value (100 mg cohort (n = 11)) was 45.5%, the “Patients with a DLT in the 100 mg cohort” value (100 mg, 3 of 11 patients) was 27.3% and the “Patients with at least one SAE irrespective of treatment” value (100 mg, 7 of 11 pts) was 63.6%. For the same compound, the “DLT hyperglycemia in the first cycle” value (100 mg, DDS N = 9) was 1 (11.1) n (%), the “DLT maculo-papular rash in the first cycle” value (100 mg, DDS N = 9) was 2 (22.2) n (%) and the “Total DLTs in the first cycle” value (100 mg, DDS N = 9) was 3 (33.3) n (%). The “Treatment discontinuation” value (100 mg, FAS N = 11) was 4 (36.4) n (%), the “Diarrhea requiring dose interruption or reduction” value (4 patients) was 22% and the “Maculo-papular rash requiring dose interruption or reduction” value (8 patients) was 44.44%. For the same compound, the “DLT hyperglycemia in the first cycle” value (All Patients, DDS N = 29) was 1 (3.4) n (%), the “DLT maculo-papular rash in the first cycle” value (All Patients, DDS N = 29) was 3 (10.3) n (%) and the “Total DLTs in the first cycle” value (All Patients, DDS N = 29) was 4 (13.8) n (%). For the same compound, the “Treatment discontinuation” value (All Patients, FAS N = 31) was 5 (16.1) n (%), the DLT maculo-papular rash (all doses) was 3 patients and the “On-study deaths attributed to the study drug” value (all patients) was “none”. For the same compound, the “Maculo-papular rash, grade 3/4” value (all patients N = 31) was 25.8%, the “Patients with Grade 3/4 drug-related AEs” value (all patients N = 31) was 51.6% and the On-study deaths (all patients, 5 disease progression, 1 multi-organ failure) was “Six”. For the same compound, the “AEs requiring dose interruptions or dose reductions” value (all patients, 18 patients) was 58.1%, the “Asthenia, Grade ≥ 3” value (drug-related, 5 mg, N = 2) was 0 n (%) and the “Chills, All Grade” value (drug-related, 5 mg, N = 2) was 0 n (%). The “Chills, Grade ≥ 3” value (drug-related, 5 mg, N = 2) was 0 n (%), the “Colitis, All Grade” value (drug-related, 5 mg, N = 2) was 0 n (%) and the “Colitis, Grade ≥ 3” value (drug-related, 5 mg, N = 2) was 0 n (%). The “Cough, All Grade” value (drug-related, 5 mg, N = 2) was 0 n (%), the “Cough, Grade ≥ 3” value (drug-related, 5 mg, N = 2) was 0 n (%) and the “Decreased appetite, All Grade” value (drug-related, 5 mg, N = 2) was 0 n (%). The “Decreased appetite, Grade ≥ 3” value (drug-related, 5 mg, N = 2) was 0 n (%), the “Decreased neutrophil count, All Grade” value (drug-related, 5 mg, N = 2) was 0 n (%) and the “Decreased neutrophil count, Grade ≥ 3” value (drug-related, 5 mg, N = 2) was 0 n (%). The “Dehydration, All Grade” value (drug-related, 5 mg, N = 2) was 0 n (%), the “Dehydration, Grade ≥ 3” value (drug-related, 5 mg, N = 2) was 0 n (%) and the “Diarrhea, All Grade” value (drug-related, 5 mg, N = 2) was 0 n (%). The “Diarrhea, Grade ≥ 3” value (drug-related, 5 mg, N = 2) was 0 n (%), the “Dry mouth, All Grade” value (drug-related, 5 mg, N = 2) was 0 n (%) and the “Dry mouth, Grade ≥ 3” value (drug-related, 5 mg, N = 2) was 0 n (%). For the same compound, the “Dry skin, All Grade” value (drug-related, 5 mg, N = 2) was 0 n (%), the “Dry skin, Grade ≥ 3” value (drug-related, 5 mg, N = 2) was 0 n (%) and the “Dysgeusia, All Grade” value (drug-related, 5 mg, N = 2) was 0 n (%). The “Dysgeusia, Grade ≥ 3” value (drug-related, 5 mg, N = 2) was 0 n (%), the “Fatigue, All Grade” value (drug-related, 5 mg, N = 2) was 1 (50.0) n (%) and the “Fatigue, Grade ≥ 3” value (drug-related, 5 mg, N = 2) was 0 n (%). The “Headache, All Grade” value (drug-related, 5 mg, N = 2) was 0 n (%), the “Headache, Grade ≥ 3” value (drug-related, 5 mg, N = 2) was 0 n (%) and the “Hyperglycemia, All Grade” value (drug-related, 5 mg, N = 2) was 0 n (%). For the same compound, the “Hyperglycemia, Grade ≥ 3” value (drug-related, 5 mg, N = 2) was 0 n (%), the “Hypomagnesaemia, All Grade” value (drug-related, 5 mg, N = 2) was 0 n (%) and the “Hypomagnesaemia, Grade ≥ 3” value (drug-related, 5 mg, N = 2) was 0 n (%). For the same compound, the “Maculo-papular rash, All Grade” value (drug-related, 5 mg, N = 2) was 0 n (%), the “Maculo-papular rash, Grade ≥ 3” value (drug-related, 5 mg, N = 2) was 0 n (%) and the “Nausea, All Grade” value (drug-related, 5 mg, N = 2) was 0 n (%). The “Nausea, Grade ≥ 3” value (drug-related, 5 mg, N = 2) was 0 n (%), the “Pneumonitis, All Grade” value (drug-related, 5 mg, N = 2) was 0 n (%) and the “Pneumonitis, Grade ≥ 3” value (drug-related, 5 mg, N = 2) was 0 n (%). For the same compound, the “Pruritus, All Grade” value (drug-related, 5 mg, N = 2) was 0 n (%), the “Pruritus, Grade ≥ 3” value (drug-related, 5 mg, N = 2) was 0 n (%) and the “Pyrexia, All Grade” value (drug-related, 5 mg, N = 2) was 0 n (%). For the same compound, the “Pyrexia, Grade ≥ 3” value (drug-related, 5 mg, N = 2) was 0 n (%), the “Rash, All Grade” value (drug-related, 5 mg, N = 2) was 0 n (%) and the “Rash, Grade ≥ 3” value (drug-related, 5 mg, N = 2) was 0 n (%). For the same compound, the “Stomatitis, All Grade” value (drug-related, 5 mg, N = 2) was 0 n (%), the “Stomatitis, Grade ≥ 3” value (drug-related, 5 mg, N = 2) was 0 n (%) and the “Vomiting, All Grade” value (drug-related, 5 mg, N = 2) was 0 n (%). The “Vomiting, Grade ≥ 3” value (drug-related, 5 mg, N = 2) was 0 n (%), the “Weight decreased, All Grade” value (drug-related, 5 mg, N = 2) was 0 n (%) and the “Weight decreased, Grade ≥ 3” value (drug-related, 5 mg, N = 2) was 0 n (%). The “Asthenia, Grade ≥ 3” value (drug-related, 10 mg, N = 3) was 0 n (%), the “Chills, All Grade” value (drug-related, 10 mg, N = 3) was 0 n (%) and the “Chills, Grade ≥ 3” value (drug-related, 10 mg, N = 3) was 0 n (%). For the same compound, the “Colitis, All Grade” value (drug-related, 10 mg, N = 3) was 0 n (%), the “Colitis, Grade ≥ 3” value (drug-related, 10 mg, N = 3) was 0 n (%) and the “Cough, All Grade” value (drug-related, 10 mg, N = 3) was 0 n (%).
